Experimental data published in patent US20110245284A1, “Alkoxy- and Alkylthio-Substituted Anilinopyrimidines” (Bayer CropScience AG, priority 2008, published 2011).

Legend:
[1] = tested on: Leptosphaeria nodorum; assay: Leptosphaeria nodorum test (wheat) / protective; format: in vivo; conditions: Parastagonospora nodorum, active compound concentration 500 ppm, evaluation 7-9 days after inoculation, read-out: efficacy
Method: Thereafter, the plants are placed in a greenhouse at 90% relative atmospheric humidity and a temperature of 22° C.

[2] = tested on: Pyrenophora teres; assay: Pyrenophora teres test (barley) / protective; format: in vivo; conditions: 192 h, active compound concentration 500 ppm, evaluation 8 days after inoculation, read-out: efficacy
Method: After the spray coating has dried on, the plants are sprayed with a spore suspension of Pyrenophora teres. The plants remain in an incubation cabinet for 48 hours at 20° C. and 100% relative atmospheric humidity.

[3] = logP by LC-MS on reversed-phase columns (C 18), method [c], neutral range pH 7.8; format: physicochemical; conditions: pH 7.8
Method: (§1) The logP values were determined in accordance with EEC Directive 79/831 Annex V.A8 by HPLC (High Performance Liquid Chromatography) on reversed-phase columns (C 18), using the methods below:
[c] The LC-MS determination in the neutral range is carried out at pH 7.8 using the mobile phases 0.001 molar aqueous ammonium bicarbonate solution and acetonitrile, linear gradient from 10% acetonitrile to 95% acetonitrile.

[4] = logP by LC-MS on reversed-phase columns (C 18), method [b], acidic range pH 2.7; format: physicochemical; conditions: pH 2.7, log p
Method: as §1
[b] The LC-MS determination in the acidic range is carried out at pH 2.7 using the mobile phases 0.1% aqueous formic acid and acetonitrile (contains 0.1% formic acid), linear gradient from 10% acetonitrile to 95% acetonitrile.

[5] = tested on: Sphaerotheca fuliginea; assay: Sphaerotheca test (cucumber) / protective; format: in vivo; conditions: Podosphaera fuliginea, 168 h, active compound concentration 500 ppm, evaluation 7 days after inoculation, read-out: efficacy
Method: The plants are subsequently placed in a greenhouse at 70% relative atmospheric humidity and a temperature of 23° C.

[6] = tested on: Pyricularia oryzae; assay: whole plant or invertebrate; format: in vivo; conditions: 120 h, read-out: efficacy
[7] = tested on: Rhizoctonia solani; assay: Rhizoctonia test (rice) / protective; format: in vivo; conditions: 96 h, active compound concentration 250 ppm, evaluation 4 days after inoculation, read-out: efficacy
[8] = logP by HPLC on reversed-phase columns (C 18), method [a], acidic range pH 2.3; format: physicochemical
Method: as §1
[a] The determination is carried out in the acidic range at pH 2.3 using the mobile phases 0.1% aqueous phosphoric acid and acetonitrile, linear gradient from 10% acetonitrile to 95% acetonitrile.

[9] = tested on: Alternaria solani; assay: Alternaria test (tomato) / protective; format: in vivo; conditions: 72 h, active compound concentration 100 ppm, evaluation 3 days after inoculation, read-out: efficacy
Method: The plants are then placed in an incubation cabinet at about 20° C. and 100% relative atmospheric humidity.

[10] = tested on: Venturia inaequalis; assay: Venturia test (apple) / protective; format: in vivo; conditions: 240 h, active compound concentration 100 ppm, evaluation 10 days after inoculation, read-out: efficacy
Method: After the spray coating has dried on, the plants are inoculated with an aqueous conidia suspension of the apple scab pathogen Venturia inaequalis and then remain for 1 day in an incubation cabinet at about 20° C. and 100% relative atmospheric humidity.

SMILES	pest or weed control at 500 ppm [1] [%]	pest or weed control at 500 ppm [2] [%]	chromatographic logP [3]	chromatographic logP [4]	pest or weed control at 500 ppm [5] [%]	chromatographic logP ([8]; pH 2.3, logP (pH2.3))	also measured
CCCC[S+]([O-])c1cccc(Nc2ncc(Cl)c(NC3CC3)n2)c1 (stereo not shown) [Example 124]	≥ 70	≥ 70	2.71	2.13	≥ 70		
CCC(C)Sc1cccc(Nc2ncc(Cl)c(NC3CCC3)n2)c1 (stereo not shown) [Example 6]	≥ 70			4.14			pest or weed control at 250 ppm [6]: ≥ 80%; pest or weed control at 250 ppm [7]: ≥ 80%
CCC(C)SC(C)c1cccc(Nc2ncc(C(F)(F)F)c(NC3CC3)n2)c1 (stereo not shown) [Example 132]	≥ 70	≥ 70	5.38	5.09	≥ 70		
CCOCCSc1cccc(Nc2ncc(C(F)(F)F)c(NC3CC3)n2)c1 [Example 190]	≥ 70	≥ 70	4.05	3.87	≥ 70		
CC[S+]([O-])C(C)c1cccc(Nc2ncc(C(F)(F)F)c(NC3CCC3)n2)c1 (stereo not shown) [Example 43, N^4-Cyclobutyl-N^2-{3-[1-(ethylsulphinyl)ethyl]phenyl}-5-(trifluoromethyl)pyrimidine-2,4-diamine]	≥ 70			2.55	≥ 70	2.55	
CCOCCOc1cc(Nc2ncc(C(F)(F)F)c(NC3CC3)n2)ccc1C [Example 79]	≥ 70		4.15	3.66	≥ 70		pest or weed control at 250 ppm [6]: ≥ 80%; pest or weed control at 250 ppm [7]: ≥ 80%
CCCSc1cccc(Nc2ncc(Cl)c(NC(C)C)n2)c1 [Example 31, 5-Chloro-N^4-(propan-2-yl)-N^2-[3-(propylsulphanyl)phenyl]pyrimidine-2,4-diamine]	≥ 70			3.3	≥ 70	3.27	pest or weed control at 250 ppm [7]: ≥ 80%
CCCS(=O)(=O)c1ccc(Nc2ncc(Cl)c(NC3CC3)n2)cc1 [Example 97]	≥ 70	≥ 70	2.76	2.42			pest or weed control at 250 ppm [6]: ≥ 80%
CCS(=O)(=O)C(C)c1cccc(Nc2ncc(C(F)(F)F)c(NC3CCC3)n2)c1 (stereo not shown) [Example 40, N^4-cyclobutyl-N^2-{3-[1-(ethylsulphonyl)ethyl]phenyl}-5-(trifluoromethyl)pyrimidine-2,4-diamine]	≥ 70			2.89	≥ 70	2.89	
COCc1cccc(Nc2ncc(Cl)c(N(C)C(C)C)n2)c1 [Example 29]	≥ 70		4				chromatographic logP ([8]; pH 2.3, log p): 2.56
COCC(O)c1cccc(Nc2ncc(Cl)c(NC3CC3)n2)c1 (stereo not shown) [Example 194]	≥ 70	≥ 70		1.26	≥ 70		
CCCS(=O)(=O)c1cccc(Nc2ncc(C(F)(F)F)c(NC3CCC3)n2)c1 [Example 34, N^4-Cyclobutyl-N^2-[3-(propylsulphonyl)phenyl]-5-(trifluoromethyl)pyrimidine-2,4-diamine]	≥ 70			3.46	≥ 70	3.46	pest or weed control at 250 ppm [7]: ≥ 80%
COCCCOC(C)c1cccc(Nc2ncc(Cl)c(NC3CC3)n2)c1 (stereo not shown) [Example 256, 5-Chloro-N4-cyclopropyl-N2-{3-[1-(3-methoxypropoxy)ethyl]phenyl}pyrimidine-2,4-diamine]			3.62	2.2		2.2	
CC(C)C[S+]([O-])c1cccc(Nc2ncc(Cl)c(NC3CC3)n2)c1 (stereo not shown) [Example 162]	≥ 70		2.81	2.11			pest or weed control at 100 ppm [9]: ≥ 70%
CC[S+]([O-])c1cccc(Nc2ncc(Cl)c(NC3CC3)n2)c1 (stereo not shown) [Example 114]	≥ 70	≥ 70	2.11	1.48	≥ 70		chromatographic logP ([8]; pH 2.3, log p): 1.49
COCCOc1cccc(Nc2ncc(Cl)c(NC3CC3C)n2)c1 (stereo not shown) [Example 209]	≥ 70	≥ 70					
COCc1cccc(Nc2ncc(Cl)c(NC3CC(C)C3)n2)c1 (stereo not shown) [Example 198]	≥ 70				≥ 70		chromatographic logP ([8]; pH 2.3, log p): 4.04

SMILES	pest or weed control at 500 ppm [1] [%]	pest or weed control at 500 ppm [2] [%]	chromatographic logP [3]	chromatographic logP [4]	pest or weed control at 500 ppm [5] [%]	chromatographic logP ([8]; pH 2.3, logP (pH2.3))	also measured
COCc1cccc(Nc2ncc(F)c(NC3CCC3)n2)c1 [Example 8]	≥ 70		2.95		≥ 70		chromatographic logP ([8]; pH 2.3, log p): 1.5
CCOCCCSc1cccc(Nc2ncc(Cl)c(NC3CC3)n2)c1 [Example 204]	≥ 70	≥ 70	4.22	3.02			
CC[S+]([O-])c1cccc(Nc2ncc(Br)c(NC3CCC3)n2)c1 (stereo not shown) [Example 112]	≥ 70	≥ 70	2.63	1.88	≥ 70		
CCCCS(=O)(=O)c1cccc(Nc2ncc(Br)c(NC3CCC3)n2)c1 [Example 151]	≥ 70		3.88	3.24			pest or weed control at 250 ppm [6]: ≥ 80%; pest or weed control at 250 ppm [7]: ≥ 80%
COCc1cccc(Nc2ncc(Cl)c(NC3CCC3C)n2)c1 (stereo not shown) [Example 207]	≥ 70		4	2.44			pest or weed control at 250 ppm [6]: ≥ 80%; pest or weed control at 250 ppm [7]: ≥ 80%
CCSC(C)c1cccc(Nc2ncc(Cl)c(NC(C)C)n2)c1 (stereo not shown) [Example 131]	≥ 70	≥ 70	4.65	2.91	≥ 70		
CCC(C)[S+]([O-])c1cccc(Nc2ncc(Cl)c(NC3CC3)n2)c1 (stereo not shown) [Example 175]	≥ 70	≥ 70	2.74	2.12	≥ 70		
Clc1ncc(Br)c(NC2CCC2)n1 [Example V-2, 5-Bromo-2-chloro-N-cyclobutylpyrimidin-4-amine]						2.86	
COCC(O)c1cccc(N)c1 (stereo not shown) [IVc-I-5, 1-(3-Aminophenyl)-2-methoxyethanol]						0.51	
COCc1cccc(Nc2ncc(Cl)c(NCC#N)n2)c1 [Example 51]			2.09				chromatographic logP ([8]; pH 2.3, log p): 1.68
CSC(C)c1cccc(Nc2ncc(C(F)(F)F)c(Cl)n2)c1 (stereo not shown) [Xa-8, 4-Chloro-N-{3-[1-(methylsulphanyl)ethyl]phenyl}-5-(trifluoromethyl)pyrimidin-2-amine]						4.5	
CCC[S+]([O-])c1ccc(Nc2ncc(Cl)c(NC3CC3)n2)cc1 (stereo not shown) [Example 98]	≥ 70	≥ 70		1.78	≥ 70		pest or weed control at 250 ppm [6]: ≥ 80%
CCC(SC)c1cccc([N+](=O)[O-])c1 (stereo not shown) [VIc-I-1, 1-[1-(Methylsulphanyl)propyl]-3-nitrobenzene]						3.51	
COC(C)c1cccc(Nc2ncc(C(F)(F)F)c(Cl)n2)c1 (stereo not shown) [Xa-9, 4-Chloro-N-[3-(1-methoxyethyl)phenyl]-5-(trifluoromethyl)pyrimidin-2-amine]						3.89	
CC(C)CCSc1cccc(Nc2ncc(C(F)(F)F)c(Cl)n2)c1 [Xa-3, 4-Chloro-N-{3-[(3-methylbutyl)sulphanyl]phenyl}-5-(trifluoromethyl)pyrimidin-2-amine]						5.79	
COCc1cccc(Nc2ncc(Cl)c(NC(C)(C)C(C)=O)n2)c1 [Example 9]							log p ([8]; pH 2.3): 1.99[a]
CCCSc1cccc(Nc2ncc(Cl)c(NC3CC3C)n2)c1 (stereo not shown) [Example 63]	≥ 70			3.58			pest or weed control at 100 ppm [10]: ≥ 70%; pest or weed control at 100 ppm [9]: ≥ 70%
